Eight compounds from ChEMBL document CHEMBL5579827, “Discovery of orally bioavailable phenyltetrazolium derivatives for the acute treatment and the secondary prevention of ischemic stroke” (Eur J Med Chem, 2024) can be followed below.

Structures are written as SMILES.

One series concerns N2a. The series is described as follows: Neuroprotective activity against OGD/R induced cell injury in mouse N2a cells assessed as cell viability at 10 uM preincubated under hypoxic condition for 2 hrs and measured after 24 hrs (reference value: 28.66 to 30.22 %). The note with it: time 26 hrs, read-out: Activity. It counts as functional.
Series [1] in a line: AUC(0 to infinity) in Sprague-Dawley rat at 10 mg/kg, po measured upto 8 hrs by LC-MS/MS analysis. It counts as ADME, organism-based. The following applies: Sprague-Dawley, in vivo.
A short description of series [2]: AUC(0 to t) in Sprague-Dawley rat at 10 mg/kg, po measured upto 8 hrs by LC-MS/MS analysis. In kind it is ADME, organism-based. The note with it: in vivo.
Series [3] can be described thus: Tmax in Sprague-Dawley rat at 10 mg/kg, po measured upto 8 hrs by LC-MS/MS analysis. It counts as ADME, organism-based. The following applies: Sprague-Dawley, in vivo, read-out: Tmax.
Series [4] can be described thus: Cmax in Sprague-Dawley rat at 10 mg/kg, po measured upto 8 hrs by LC-MS/MS analysis. In kind it is ADME, organism-based. The following applies: Sprague-Dawley, in vivo, read-out: Cmax.
A short description of series [5]: Half-life in Sprague-Dawley rat at 10 mg/kg, po measured upto 8 hrs by LC-MS/MS analysis. It counts as ADME, organism-based. The note with it: Sprague-Dawley, in vivo.

Consider `CCCCC(O)c1ccccc1-c1cc[nH]n1` (stereo not drawn), for which the viability at 10 µM in the series with N2a was 39.5%.
Consider `CCCCC(O)c1ccc(Br)cc1-c1nnn(CCN(C)C)n1` (stereo not drawn), for which, in the series with N2a, the viability at 10 µM is 44%.
With `CCCCC(O)c1ccccc1-c1cccs1` (stereo not drawn), in the series on N2a, the viability at 10 µM is 35.4%.
One may read the AUC(0-inf) as total exposure, with the tail of the curve extrapolated. Read a high AUC(0-inf) as more exposure. The term AUC(0-t) denotes the area under the concentration-time curve up to a stated or last time point. Lower therefore signals less exposure. As usually defined, the Tmax is the time at which the peak concentration occurs. What is called Cmax is the peak of the concentration-time curve. What is called half-life is the time needed for the level to fall by half in the phase considered. A lower half-life goes with rapid decline. The compound `CCCCC(O)c1ccccc1-c1nnn(C)n1` (stereo not drawn) displayed an AUC(0-inf) in series [1] of 71.5 ng·h/mL. Also, the viability at 10 µM in the series on N2a worked out at 43.9%. The AUC(0-t) at 8 h in series [2] amounted to 39.9 ng·h/mL. Also, the time of peak concentration (Tmax) in series [3] was determined as 0.25 h. The Cmax in series [4] was 13.1 ng/mL. The half-life in series [5] was 7.22 h.
For `CCCCC(O)c1ccc(Br)cc1-c1nnn(C2CC2)n1` (stereo not drawn), the viability at 10 µM in the series with N2a came out at 50.6%.
In the case of `CCCC(O)c1ccc(C2=CCCCC2)cc1-c1nn[nH]n1` (stereo not drawn), the viability at 10 µM in the series on N2a amounted to 39.1%.
Same read-out and setting: next, `CCCCC(O)c1ccccc1-c1ccc[nH]1` (stereo not drawn): 38.6%; `CCCCCC(O)c1ccccc1-c1nn[nH]n1` (stereo not drawn): 35.6%.
